Data taken from patent US5466687A, “Arylidene-1-azacycloalkanes and arylalkyl-1-azacyclo-alkanes, their salts, medicaments containing these compounds and their use, and processes for their preparation” (priority 1992, dated 1995).

Columns and labels:
[1] = tested on: human hepatoma cells (HEP-G2); experiment: Inhibition of 14C-acetate incorporation in digitonin-precipitatable steroids in HEP-G2 cells; format: cell-based; conditions: for percent change in 14C-acetate incorporation into sterols at 0.1 µM / percent change in 14C-acetate incorporation into sterols at 0.01 µM: Homo sapiens; for percent change in 14C-acetate incorporation into sterols at 0.1 µM: HepG2, 10^-7 mol/l; for percent change in 14C-acetate incorporation into sterols at 0.01 µM: HepG2, 10^-8 mol/l
Method: I. Measurement of the inhibition of ^14 C-acetate incorporation in digitonin-precipitatable steroids:
After 3 days of culture, human hepatoma cells (HEP-G2) are stimulated for 16 hours in cholesterol-free medium. The substances to be tested (dissolved in dimethyl sulphoxide, final concentration 0.1%) are added during this stimulation phase. After the addition of 200 μmol/l of 2-^14 C-acetate, the mixture is then reincubated at 37° C. for a further 2 hours.
The cells are detached and the sterol esters are hydrolyzed and, after extraction, sterols are precipitated using digitonin. The ^14 C-acetate incorporated into digitonin-precipitatable sterols is determined by scintillation measurement.
The investigation of the inhibitory action was carried out at test concentrations of 10^-7 mol/l and 10^-8 mol/l. The test results of the following compounds A to AG of the general formula I are indicated at these test concentrations by way of example: […]

[2] = tested on: 2,3-epoxysqualene-lanosterol cyclase; experiment: In vivo effect in the rat after oral administration: 2,3-epoxysqualene level in plasma; parameters: species or system rat (male Wistar); conditions: 5 hours after administration
Method: II. Measurement of the in vivo effect in the rat after oral administration
The inhibition of the enzyme 2,3-epoxysqualene-lanosterol cyclase causes an increase in the 2,3-epoxy-squalene level in the liver and plasma. Therefore, the amount of 2,3-epoxysqualene formed therefore serves as a direct measure of the effectiveness in the whole animal. The determination is carried out by the following method:
The test substance suspended in 1.5% strength aqueous methylcellulose is administered via stomach tube to male Wistar rats (160-190 g body weight). 5 hours after administration, blood is obtained retroorbitally from the venous plexus. Plasma is extracted by the method of Bligh and Dyer (Canad. J. Biochem. Physiol. 37, 912, [1959]), purified by means of a precolumn and then analyzed by means of HPLC. The peaks obtained are identified and quantified by means of calibration substances. An internal standard is used to check the reproducibility of the results.
The investigations were carried out using concentrations of 0.1 and 1.0 mg/kg. The results for the above mentioned substances A to M are compiled in the following Table by way of example: […]

[3] = Toxic effects in the mouse after oral administration; format: in vivo; conditions: oral 100 mg/kg, once daily for 4 days
Excerpt: The compounds A to I appeared to be non-toxic at the curative dose.

[4] = tested on: Normal human epidermal keratinocytes (NHEK); experiment: Inhibition of cell proliferation of keratinocytes; format: cell-based; conditions: 48 h, read-out: percentage decrease in cell numbers
Method: V. Inhibition of cell proliferation
Normal human epidermal keratinocytes (NHEK) are cultured under sterile conditions in keratinocyte growth medium (Gibco) in a humidified, 5% CO2 -containing atmosphere. Cells of the third passage are inoculated at a density of 12,000 cells/ml.
After 24 hours, the test substance is added to the medium and the number of cells is determined after a further 48 hours. The results were calculated in comparison to a control and are indicated as the percentage decrease in cell numbers.
The proliferation-inhibiting action of the above mentioned compound A was tested in comparison to simvastatin at concentrations of 10^-6 to 10^-10 mol/l.

[5] = cited from earlier work

Structure (SMILES) | percent change in 14C-acetate incorporation into sterols at 0.1 µM [1] [%] | 2,3-Epoxysqualene concentration in plasma (rat) ([2]; 0.1 mg/kg oral) [µg/mL] | 2,3-Epoxysqualene concentration in plasma (rat) ([2]; 1.0 mg/kg oral) [µg/mL] | percent change in 14C-acetate incorporation into sterols at 0.01 µM [1] [%] | also measured
O=C(c1ccc(Cl)s1)N1CCC(=Cc2ccc(C3=NCCO3)cc2)CC1 [F, 1-(5-chloro-2-thienoyl)-4-[4-(2-oxazolin-2-yl)benzylidene]piperidine] | -84 | 0.00 | 2.00 |  | inhibition of 14C-acetate incorporation ([1]; 10^-8 mol/l): -55%
O=C(C1CCCCC1)N1CCC(=Cc2ccc(C3=NCCO3)cc2)CC1 [G, 1-cyclohexanecarbonyl-4-[4-(2-oxazolin-2-yl)benzylidene]piperidine] | -80 | 0.36 | 0.31 | -45 | 
O=C(c1ccc(C(F)(F)F)cc1)N1CCC(Cc2ccc(C3=NCCO3)cc2)CC1 [H, 4-[4-(2-oxazolin-2-yl)benzyl]-1-(4-trifluoromethylbenzoyl)piperidine] | -86 | 1.70 | 9.15 | -62 | toxic effects in the mouse [3]: no toxic effects
O=C(c1ccc(Cl)cc1)N1CCC(=Cc2ccc(C3=NCCO3)cc2)C1 [K, 1-(4-chlorobenzoyl)-3-[4-(2-oxazolin-2-yl)benzylidene]pyrrolidine] | -90 | 0.0 | 4.14 | -56 | 
O=C(c1ccc(Cl)cc1)N1CCC(=Cc2ccc(C3=NCCO3)cc2F)CC1 [L, 1-(4-chlorobenzoyl)-4-[2-fluoro-4-(2-oxazolin-2-yl)benzylidene]piperidine] | -83 | 0.44 | 6.46 | -52 | 
Cc1cc(C=C2CCN(C(=O)c3ccc(Cl)cc3)CC2)ccc1C1=NCCO1 [M, 1-(4-chlorobenzoyl)-4-[3-methyl-4-(2-oxazolin-2-yl)benzylidene]piperidine] | -76 | 0.78 | 6.53 | -32 | 
CCC(C)(C)C(=O)O[C@H]1C[C@@H](C)C=C2C=C[C@H](C)[C@H](CC[C@@H]3C[C@@H](O)CC(=O)O3)[C@H]21 [Simvastatin, simvastatin, reference compound] |  |  |  |  | inhibition at 0.0001 µM [4]: 7%; inhibition at 0.001 µM [4]: 21%; inhibition at 0.01 µM [4]: 20%; inhibition at 0.1 µM [4]: 51%; inhibition at 1 µM [4]: 68%
CC[C@H](C)C(=O)O[C@H]1C[C@H](O)C=C2C=C[C@H](C)[C@H](CC[C@@H](O)C[C@@H](O)CC(=O)O)[C@H]21 [pravastatin] |  |  |  |  | cholesterol concentration in the bile / lithogenic index ([5]; Gut 31, 348-350 [1990], Z. Gastroenterol. 29, 242-245 [1991]): can cause a reduction of the cholesterol concentration in the bile; gallstone formation ([5]; in vivo): do not lead to increased gallstone formation
